In patent publication US20100137449A1, “SUBSTITUTED 1,3-CYCLOPENTADIONE MULTI-TARGET PROTEIN KINASE MODULATORS OF CANCER, ANGIOGENESIS AND THE INFLAMMATORY PATHWAYS ASSOCIATED THEREWITH” (METAPROTEOMICS, LLC, priority 2007, published 2010):

How the values were obtained:
Assay in all cases: KinaseProfiler Assay
PKBγ(h) = PKBγ(h) (Homo sapiens, UniProt Q9Y243)
JAK3(h) = target: T1, JAK3(h) (Homo sapiens, UniProt P52333)
T1 sequence (P52333 1-1124): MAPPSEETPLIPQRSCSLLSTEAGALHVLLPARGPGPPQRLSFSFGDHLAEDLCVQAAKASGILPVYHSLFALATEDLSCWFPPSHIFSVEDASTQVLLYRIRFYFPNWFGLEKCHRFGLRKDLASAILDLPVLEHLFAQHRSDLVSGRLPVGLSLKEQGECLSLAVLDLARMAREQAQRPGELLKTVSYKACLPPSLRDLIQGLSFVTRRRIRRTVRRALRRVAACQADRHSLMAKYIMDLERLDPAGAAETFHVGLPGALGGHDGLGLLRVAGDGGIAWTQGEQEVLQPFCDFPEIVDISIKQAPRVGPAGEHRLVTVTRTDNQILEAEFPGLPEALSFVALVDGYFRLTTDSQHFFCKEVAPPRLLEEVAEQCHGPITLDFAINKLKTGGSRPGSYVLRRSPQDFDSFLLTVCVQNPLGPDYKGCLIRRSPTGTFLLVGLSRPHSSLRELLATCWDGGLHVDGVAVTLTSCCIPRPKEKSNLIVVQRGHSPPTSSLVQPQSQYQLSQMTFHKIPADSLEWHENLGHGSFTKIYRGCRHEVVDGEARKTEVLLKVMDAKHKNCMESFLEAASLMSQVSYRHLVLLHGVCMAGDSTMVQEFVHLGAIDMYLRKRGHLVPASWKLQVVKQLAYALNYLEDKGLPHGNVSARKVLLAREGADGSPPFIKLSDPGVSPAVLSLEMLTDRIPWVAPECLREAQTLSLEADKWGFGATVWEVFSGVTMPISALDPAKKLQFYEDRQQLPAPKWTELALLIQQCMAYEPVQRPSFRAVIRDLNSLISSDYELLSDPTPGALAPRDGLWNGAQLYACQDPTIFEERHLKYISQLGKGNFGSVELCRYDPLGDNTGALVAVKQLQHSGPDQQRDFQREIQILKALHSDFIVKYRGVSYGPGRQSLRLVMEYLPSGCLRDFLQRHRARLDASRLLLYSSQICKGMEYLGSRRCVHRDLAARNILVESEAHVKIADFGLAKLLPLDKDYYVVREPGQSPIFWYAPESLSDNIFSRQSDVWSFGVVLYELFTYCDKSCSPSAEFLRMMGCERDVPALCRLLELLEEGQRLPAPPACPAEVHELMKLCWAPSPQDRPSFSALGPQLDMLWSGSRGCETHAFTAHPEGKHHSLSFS

MRCKβ(h) = MRCKβ(h) (Homo sapiens, UniProt Q9Y5S2)
CDK5/p35(h) = CDK5/p35(h) (Homo sapiens, UniProt Q00535)
GSK3α(h) = GSK3α(h) (Homo sapiens, UniProt P49840)
Ret(V804L)(h) = Ret(V804L)(h) (Homo sapiens, UniProt P07949, V804L)
cKit(D816H)(h) = cKit(D816H)(h) (Homo sapiens, UniProt P10721, D816H)
Lyn(m) = Lyn(m) (Mus musculus, UniProt P25911)
PI 3-Kinaseδ(h) = PI 3-Kinaseδ(h) (Homo sapiens, UniProt O00329)
FGFR2(N549H)(h) = FGFR2(N549H)(h) (Homo sapiens, UniProt P21802, N549H)
cKit(V560G)(h) = cKit(V560G)(h) (Homo sapiens, UniProt P10721, V560G)

Chain of FGFR2(N549H)(h) (P21802 22-821 N549H): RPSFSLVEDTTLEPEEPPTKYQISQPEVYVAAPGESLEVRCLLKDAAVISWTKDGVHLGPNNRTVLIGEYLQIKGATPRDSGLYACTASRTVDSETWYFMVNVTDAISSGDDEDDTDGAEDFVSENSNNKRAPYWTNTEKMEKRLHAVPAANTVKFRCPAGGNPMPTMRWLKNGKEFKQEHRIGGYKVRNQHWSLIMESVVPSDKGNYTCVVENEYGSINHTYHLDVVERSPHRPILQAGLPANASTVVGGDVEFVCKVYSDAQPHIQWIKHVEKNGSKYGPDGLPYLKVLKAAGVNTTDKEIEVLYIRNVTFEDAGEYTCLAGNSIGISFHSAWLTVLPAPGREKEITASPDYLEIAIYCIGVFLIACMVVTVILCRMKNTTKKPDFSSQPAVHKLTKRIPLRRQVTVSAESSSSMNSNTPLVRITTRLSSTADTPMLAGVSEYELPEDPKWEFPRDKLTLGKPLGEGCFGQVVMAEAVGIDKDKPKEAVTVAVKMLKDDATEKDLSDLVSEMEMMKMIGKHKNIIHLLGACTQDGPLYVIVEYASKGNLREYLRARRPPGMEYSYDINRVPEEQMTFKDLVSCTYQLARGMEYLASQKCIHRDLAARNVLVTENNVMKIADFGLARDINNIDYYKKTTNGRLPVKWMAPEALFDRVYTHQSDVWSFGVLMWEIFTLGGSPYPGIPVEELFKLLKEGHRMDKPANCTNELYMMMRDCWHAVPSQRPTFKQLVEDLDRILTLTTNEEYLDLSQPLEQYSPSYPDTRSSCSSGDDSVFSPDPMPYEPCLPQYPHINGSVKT
Chain of MRCKβ(h) (Q9Y5S2 whole entry): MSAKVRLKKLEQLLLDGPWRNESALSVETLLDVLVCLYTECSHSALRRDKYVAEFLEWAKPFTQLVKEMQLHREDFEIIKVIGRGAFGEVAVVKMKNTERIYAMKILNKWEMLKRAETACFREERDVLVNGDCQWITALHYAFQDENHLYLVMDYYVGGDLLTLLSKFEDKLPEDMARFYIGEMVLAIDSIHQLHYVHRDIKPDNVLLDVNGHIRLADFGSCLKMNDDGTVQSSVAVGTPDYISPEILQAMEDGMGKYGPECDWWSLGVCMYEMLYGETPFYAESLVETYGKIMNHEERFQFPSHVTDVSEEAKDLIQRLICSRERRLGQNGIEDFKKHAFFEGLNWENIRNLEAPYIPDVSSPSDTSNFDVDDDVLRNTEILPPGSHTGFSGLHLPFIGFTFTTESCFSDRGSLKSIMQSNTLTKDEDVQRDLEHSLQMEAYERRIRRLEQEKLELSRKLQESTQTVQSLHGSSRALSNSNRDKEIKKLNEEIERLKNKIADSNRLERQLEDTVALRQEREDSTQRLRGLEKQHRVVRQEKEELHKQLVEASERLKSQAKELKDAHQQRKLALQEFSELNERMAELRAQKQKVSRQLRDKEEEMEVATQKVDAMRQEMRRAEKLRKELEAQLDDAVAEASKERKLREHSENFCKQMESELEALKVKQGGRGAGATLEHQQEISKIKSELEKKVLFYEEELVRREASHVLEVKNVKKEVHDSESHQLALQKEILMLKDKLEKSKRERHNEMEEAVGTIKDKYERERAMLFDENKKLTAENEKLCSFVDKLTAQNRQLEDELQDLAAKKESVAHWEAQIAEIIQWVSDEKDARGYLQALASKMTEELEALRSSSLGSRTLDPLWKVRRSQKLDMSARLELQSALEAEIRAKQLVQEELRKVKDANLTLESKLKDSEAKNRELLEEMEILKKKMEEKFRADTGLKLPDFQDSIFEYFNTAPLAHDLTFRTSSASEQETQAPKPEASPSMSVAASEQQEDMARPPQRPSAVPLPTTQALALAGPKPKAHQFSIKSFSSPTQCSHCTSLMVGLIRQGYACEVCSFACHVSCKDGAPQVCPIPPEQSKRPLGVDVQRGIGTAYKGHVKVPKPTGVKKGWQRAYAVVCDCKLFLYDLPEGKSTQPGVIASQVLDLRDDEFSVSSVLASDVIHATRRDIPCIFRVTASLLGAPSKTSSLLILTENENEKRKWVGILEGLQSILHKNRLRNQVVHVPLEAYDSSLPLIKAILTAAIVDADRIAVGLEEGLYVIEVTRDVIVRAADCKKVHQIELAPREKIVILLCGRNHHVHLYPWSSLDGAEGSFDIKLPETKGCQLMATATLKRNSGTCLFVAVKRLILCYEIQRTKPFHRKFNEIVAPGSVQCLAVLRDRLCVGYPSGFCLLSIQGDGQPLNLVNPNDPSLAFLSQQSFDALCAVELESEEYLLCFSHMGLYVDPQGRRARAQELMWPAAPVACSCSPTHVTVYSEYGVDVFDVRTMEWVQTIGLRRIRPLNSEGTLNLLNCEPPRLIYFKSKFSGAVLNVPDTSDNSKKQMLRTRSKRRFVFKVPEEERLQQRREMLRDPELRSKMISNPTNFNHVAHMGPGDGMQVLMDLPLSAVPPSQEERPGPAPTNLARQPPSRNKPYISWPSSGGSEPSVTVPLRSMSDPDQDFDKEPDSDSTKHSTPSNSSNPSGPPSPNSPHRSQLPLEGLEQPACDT
Chain of Lyn(m) (P25911 whole entry): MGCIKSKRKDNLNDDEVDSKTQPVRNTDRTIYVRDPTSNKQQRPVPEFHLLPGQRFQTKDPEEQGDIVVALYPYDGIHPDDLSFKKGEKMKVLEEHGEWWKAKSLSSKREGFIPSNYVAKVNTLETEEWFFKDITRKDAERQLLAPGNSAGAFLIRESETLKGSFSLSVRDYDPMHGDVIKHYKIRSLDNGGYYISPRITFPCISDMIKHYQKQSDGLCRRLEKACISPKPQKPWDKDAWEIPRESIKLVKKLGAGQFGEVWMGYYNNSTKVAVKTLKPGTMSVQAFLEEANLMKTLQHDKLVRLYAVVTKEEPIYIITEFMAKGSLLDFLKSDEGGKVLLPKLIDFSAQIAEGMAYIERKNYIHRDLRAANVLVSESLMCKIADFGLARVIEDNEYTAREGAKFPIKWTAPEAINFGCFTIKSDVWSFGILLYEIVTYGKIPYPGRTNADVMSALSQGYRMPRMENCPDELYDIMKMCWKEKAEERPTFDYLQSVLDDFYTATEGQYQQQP
Chain of GSK3α(h) (P49840 whole entry): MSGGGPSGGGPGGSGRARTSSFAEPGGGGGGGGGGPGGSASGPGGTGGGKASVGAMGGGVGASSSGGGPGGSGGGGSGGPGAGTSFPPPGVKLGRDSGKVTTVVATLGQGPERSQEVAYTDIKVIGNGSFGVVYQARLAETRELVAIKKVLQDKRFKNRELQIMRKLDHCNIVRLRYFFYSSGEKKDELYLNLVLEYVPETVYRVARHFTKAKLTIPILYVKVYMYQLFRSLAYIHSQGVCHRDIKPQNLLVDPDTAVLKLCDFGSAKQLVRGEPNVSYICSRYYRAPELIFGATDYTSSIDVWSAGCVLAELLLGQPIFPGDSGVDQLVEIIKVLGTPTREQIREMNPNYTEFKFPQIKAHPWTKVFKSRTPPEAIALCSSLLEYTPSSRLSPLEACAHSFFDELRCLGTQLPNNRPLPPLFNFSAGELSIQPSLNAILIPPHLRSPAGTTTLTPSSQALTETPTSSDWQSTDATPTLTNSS
Chain of cKit(D816H)(h) (P10721 26-976 D816H): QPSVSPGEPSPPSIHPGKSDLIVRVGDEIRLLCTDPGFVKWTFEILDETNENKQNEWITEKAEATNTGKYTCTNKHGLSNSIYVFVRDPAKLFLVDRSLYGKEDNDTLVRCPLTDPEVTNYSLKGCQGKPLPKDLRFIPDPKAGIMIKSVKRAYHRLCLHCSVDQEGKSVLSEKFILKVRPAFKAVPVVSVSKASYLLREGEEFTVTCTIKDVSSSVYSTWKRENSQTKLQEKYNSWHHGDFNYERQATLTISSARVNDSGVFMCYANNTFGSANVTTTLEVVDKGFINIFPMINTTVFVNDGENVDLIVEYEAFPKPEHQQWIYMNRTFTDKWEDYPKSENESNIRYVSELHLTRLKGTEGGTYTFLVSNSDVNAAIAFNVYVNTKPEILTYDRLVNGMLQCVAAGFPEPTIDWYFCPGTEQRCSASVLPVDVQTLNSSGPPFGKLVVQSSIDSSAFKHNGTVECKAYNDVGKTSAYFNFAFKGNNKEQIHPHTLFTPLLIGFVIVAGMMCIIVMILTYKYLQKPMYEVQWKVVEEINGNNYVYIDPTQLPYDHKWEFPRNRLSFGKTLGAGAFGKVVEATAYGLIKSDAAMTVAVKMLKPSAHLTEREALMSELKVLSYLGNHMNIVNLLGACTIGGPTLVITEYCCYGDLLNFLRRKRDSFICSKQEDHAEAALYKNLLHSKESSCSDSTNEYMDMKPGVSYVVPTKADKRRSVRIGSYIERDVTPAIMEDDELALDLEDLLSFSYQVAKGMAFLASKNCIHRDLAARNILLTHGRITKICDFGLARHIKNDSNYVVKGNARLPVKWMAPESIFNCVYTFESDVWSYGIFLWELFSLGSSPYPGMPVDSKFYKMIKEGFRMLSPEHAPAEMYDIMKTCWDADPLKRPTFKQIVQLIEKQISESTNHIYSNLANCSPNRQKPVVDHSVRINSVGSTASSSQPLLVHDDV
Chain of CDK5/p35(h) (Q00535 whole entry): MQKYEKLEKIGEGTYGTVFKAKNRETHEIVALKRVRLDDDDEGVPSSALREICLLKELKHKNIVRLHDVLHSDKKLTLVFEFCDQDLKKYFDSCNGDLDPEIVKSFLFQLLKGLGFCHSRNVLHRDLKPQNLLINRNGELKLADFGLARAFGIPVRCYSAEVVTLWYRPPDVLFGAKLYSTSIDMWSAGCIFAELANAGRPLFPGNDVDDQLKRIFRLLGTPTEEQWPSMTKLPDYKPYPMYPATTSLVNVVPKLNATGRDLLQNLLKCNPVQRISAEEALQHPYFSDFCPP
Chain of CDK5/p35(h) (Q15078 whole entry partner): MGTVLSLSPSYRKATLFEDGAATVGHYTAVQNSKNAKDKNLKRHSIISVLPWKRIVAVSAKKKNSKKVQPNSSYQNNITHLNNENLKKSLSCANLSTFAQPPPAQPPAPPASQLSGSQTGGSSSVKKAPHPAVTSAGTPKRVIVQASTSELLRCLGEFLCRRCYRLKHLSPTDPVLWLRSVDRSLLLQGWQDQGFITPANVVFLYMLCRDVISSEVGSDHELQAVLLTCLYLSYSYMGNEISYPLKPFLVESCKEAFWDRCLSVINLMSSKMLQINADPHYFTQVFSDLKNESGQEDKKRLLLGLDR

CC(C)CCC(=O)[C@]1(O)C(O)=C(C(=O)C(C)C)C(=O)[C@H]1CCC(C)C [TH2, tetrahydroiso-cohumulone]
kinase inhibition (PKBγ(h); 1 μg/ml): 112% of control
kinase inhibition (PKBγ(h); 5 μg/ml): 110% of control
kinase inhibition (PKBγ(h); 25 μg/ml): 107% of control
kinase inhibition (PKBγ(h); 50 μg/ml): 97% of control
kinase inhibition (PKBγ(h); 100 μg/ml): 83% of control
kinase inhibition (JAK3(h); 1 μg/ml): 74% of control
kinase inhibition (JAK3(h); 5 μg/ml): 67% of control
kinase inhibition (JAK3(h); 25 μg/ml): 62% of control
kinase inhibition (JAK3(h); 50 μg/ml): 53% of control
kinase inhibition (JAK3(h); 100 μg/ml): 35% of control
kinase inhibition (MRCKβ(h); 1 μg/ml): 110% of control
kinase inhibition (MRCKβ(h); 5 μg/ml): 114% of control
kinase inhibition (MRCKβ(h); 25 μg/ml): 109% of control
kinase inhibition (MRCKβ(h); 50 μg/ml): 104% of control
kinase inhibition (MRCKβ(h); 100 μg/ml): 99% of control
kinase inhibition (CDK5/p35(h); 1 μg/ml): 105% of control
kinase inhibition (CDK5/p35(h); 5 μg/ml): 98% of control
kinase inhibition (CDK5/p35(h); 25 μg/ml): 106% of control
kinase inhibition (CDK5/p35(h); 50 μg/ml): 80% of control
kinase inhibition (CDK5/p35(h); 100 μg/ml): 90% of control
kinase inhibition (GSK3α(h); 1 μg/ml): 94% of control
kinase inhibition (GSK3α(h); 5 μg/ml): 92% of control
kinase inhibition (GSK3α(h); 25 μg/ml): 61% of control
kinase inhibition (GSK3α(h); 50 μg/ml): 51% of control
kinase inhibition (GSK3α(h); 100 μg/ml): 43% of control
kinase inhibition (Ret(V804L)(h); 1 μg/ml): 110% of control
kinase inhibition (Ret(V804L)(h); 5 μg/ml): 103% of control
kinase inhibition (Ret(V804L)(h); 25 μg/ml): 91% of control
kinase inhibition (Ret(V804L)(h); 50 μg/ml): 81% of control
kinase inhibition (Ret(V804L)(h); 100 μg/ml): 60% of control
kinase inhibition (cKit(D816H)(h); 1 μg/ml): 123% of control
kinase inhibition (cKit(D816H)(h); 5 μg/ml): 116% of control
kinase inhibition (cKit(D816H)(h); 25 μg/ml): 104% of control
kinase inhibition (cKit(D816H)(h); 50 μg/ml): 114% of control
kinase inhibition (cKit(D816H)(h); 100 μg/ml): 108% of control
kinase inhibition (Lyn(m); 1 μg/ml): 116% of control
kinase inhibition (Lyn(m); 5 μg/ml): 110% of control
kinase inhibition (Lyn(m); 25 μg/ml): 76% of control
kinase inhibition (Lyn(m); 50 μg/ml): 58% of control
kinase inhibition (Lyn(m); 100 μg/ml): 68% of control
kinase inhibition (PI 3-Kinaseδ(h); 1 μg/ml): 97% of control
kinase inhibition (PI 3-Kinaseδ(h); 5 μg/ml): 89% of control
kinase inhibition (PI 3-Kinaseδ(h); 25 μg/ml): 62% of control
kinase inhibition (PI 3-Kinaseδ(h); 50 μg/ml): 18% of control
kinase inhibition (PI 3-Kinaseδ(h); 100 μg/ml): 52% of control
kinase inhibition (FGFR2(N549H)(h); 1 μg/ml): 110% of control
kinase inhibition (FGFR2(N549H)(h); 5 μg/ml): 102% of control
kinase inhibition (FGFR2(N549H)(h); 25 μg/ml): 103% of control
kinase inhibition (FGFR2(N549H)(h); 50 μg/ml): 103% of control
kinase inhibition (FGFR2(N549H)(h); 100 μg/ml): 82% of control
kinase inhibition (cKit(V560G)(h); 1 μg/ml): 112% of control
kinase inhibition (cKit(V560G)(h); 5 μg/ml): 114% of control
kinase inhibition (cKit(V560G)(h); 25 μg/ml): 105% of control
kinase inhibition (cKit(V560G)(h); 50 μg/ml): 90% of control
kinase inhibition (cKit(V560G)(h); 100 μg/ml): 78% of control
